Key:
STAT6 [1] = assay: Screening compounds inhibiting promotion of STAT6 activity (STAT6 reporter activity); type: cell-based; conditions: 20 μM, mouse IL-4 1 ng/ml, 6 h; for inhibition of expression of the STAT6 reporter gene, control plasmid well: NIH3T3 cells with control plasmid pcDNA3.1 (+); for inhibition of expression of the STAT6 reporter gene (relative luciferase activity): NIH3T3 cells with plasmid for STAT6 activation-promoting protein of SEQ ID NO: 3, 17, 19, 218, 432 or 472, or nucleotide of SEQ ID NO: 64, FIGS. 1 to 7
Method: NIH3T3 cells were seeded on 10% FBS containing IMDM medium in a 96-well cell culture plate to a final cell density of 1×10^4 cells/100 μl/well, and cultured for 24 hours at 37° C. in the presence of 5% CO2. Then, 30 ng of the plasmid containing the nucleotide encoding the STAT6 activation-promoting protein of SEQ ID NO: 3, 17, 19, 218, 432 or 472, or the nucleotide of SEQ ID NO: 64, and 100 ng of the luciferase reporter plasmid having the STAT6 response sequence were cotransfected into the cells in a well using FuGENE 6. […] After 30 min of culture at 37° C., followed by 6 hours of culture with addition of mouse IL-4 to a final concentration of 1 ng/ml, the reporter activity was measured using PIKKA GENE LT2.0.

STAT6 [2] = assay: Screening of full-length cDNA clones for promotion of STAT6 activation (luciferase reporter N4×8-luc); type: cell-based; conditions: NIH3T3 cells cotransfected with N4×8-luc reporter and cDNA plasmid; 48 h culture, then mouse IL-4 0.5 ng/ml for 6 h
In short: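 Promotion of STAT6 activation scored as increase in luciferase signal over null-vector control cells. NIH3T3 cells carried N4×8-luc (100 ng) plus cDNA clone; after 48 h culture, 6 h stimulation with 0.5 ng/ml (final) mouse IL-4 preceded reading.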

Molecule | inhibition of expression of the STAT6 reporter gene, control plasmid well (STAT6 [1]) | inhibition of expression of the STAT6 reporter gene (relative luciferase activity) (STAT6 [1]) | Activity = (luciferase activity of the gene of each SEQ ID NO:)/(luciferase activity of pME18S-FL3) (STAT6 [2])
N#C/C(=C/c1ccc(O)c(O)c1)C(=O)NCc1ccccc1 [AG490] | no expression was inhibited at all | inhibited | 
N#CC(C#N)=Cc1ccc(O)c(O)c1 [AG18] | no expression was inhibited at all | inhibited | 
481 (nucleic acid, listed as Homo sapiens, CDS (112)..(1224)) GAAAGAGCCGAGTGGGCTCGAGGCCGACGCGACCATCGTTTGTCGACGCCGCTGCCACCGCCTGCCTGAGAGAAGTCGTCGCGGCCGACCCCGTCGCCTCCGCCGGCTACCATGTCCGCCCAGGCGCAGATGCGGGCCCTGCTGGACCAGCTCATGGGCACGGCTCGGGACGGAGACGAAACCAGACAGAGGGTCAAGTTTACAGATGACCGTGTCTGCAAGAGTCACCTTCTGGACTGCTGCCCCCATGACATCCTGGCTGGGACGCGCATGGATTTAGGAGAATGTACCAAAATCCACGACTTGGCCCTCCGAGCAGATTATGAGATTGCAAGTAAAGAAAGAGACCTGTTTTTTGAATTAGATGCAATGGATCACTTGGAGTCCTTTATTGCTGAATGTGATCGGAGAACTGAGCTCGCCAAGAAGCGGCTGGCAGAAACACAGGAGGAAATCAGTGCGGAAGTTTCTGCAAAGGCAGAAAAAGTACATGAGTTAAATGAAGAAATAGGAAAACTCCTTGCTAAAGCCGAACAGCTAGGGGCTGAAGGTAATGTGGATGAATCCCAGAAGATTCTTATGGAAGTGGAAAAAGTTCGTGCGAAGAAAAAAGAAGCTGAGGAAGAATACAGAAATTCCATGCCTGCATCCAGTTTTCAGCAGCAAAAGCTGCGTGTCTGCGAGGTCTGTTCAGCCTACCTTGGTCTCCATGACAATGACCGTCGCCTGGCAGACCACTTCGGTGGCAAGTTACACTTGGGGTTCATTCAGATCCGAGAGAAGCTTGATCAGTTGAGGAAAACTGTCGCTGAAAAGCAGGAGAAGAGAAATCAGGATCGCTTGAGGAGGAGAGAGGAGAGGGAACGGGAGGAGCGTCTGAGCAGGAGGTCGGGATCAAGAACCAGAGATCGCAGGAGGTCACGCTCCCGGGATCGGCGTCGGAGGCGGTCAAGATCTACCTCCCGAGAGCGACGGAAATTGTCCCGGTCCCGGTCCCGAGATAGACATCGGCGCCACCGCAGCCGTTCCCGGAGCCACAGCCGGGGACATCGTCGGGCTTCCCGGGACCGAAGTGCGAAATACAAGTTCTCCAGAGAGCGGGCATCCAGAGAGGAGTCCTGGGAGAGCGGGCGGAGCGAGCGAGGGCCCCCGGACTGGAGGCTTGAGAGCTCCAACGGGAAGATGGCTTCACGGAGGTCAGAAGAGAAGGAGGCCGGCGAGATCTGAACCCGTCTCCCGGGTGCTGTAAATAGTCTGATAAACGTTCACACAGTCTAAAATTACCCTTTATATTTGCTGAATACAACTCATCTTTTGTAGTTTAAAATTTCTATTGTTTTGGAGCTAGCTGTGAGTTTCTAGAAGTGTACAGAGTTGCTCCTGTGTTCCCGGGTCATGTTGAGTAGGAATAAATAAATCTGATGCTGCCTCCTGAGGCTGCGGGGGGTTT |  |  | 6.4

Source: US20030092616A1, “STAT6 activation gene” (priority 2001, published 2003)
